Test results: patent US8129410B2, “Benzisoxazole piperidine compounds and methods of use thereof” (Hypnion, Inc., priority 2005, dated 2012)

Test system: adult, male Wistar rats
Assay: Sleep-wakefulness monitoring (SCORE-2004, EEG/EMG) in rats after oral dosing at CT-18
Type: in vivo, rat
Conditions: for LONGEST UNINTERRUPTED SLEEP BOUT: bout length defined in minutes; for MAXIMUM NREM SLEEP CUMULATION: cumulative nonREM defined in minutes, in min
Protocol: Sleep-wakefulness, locomotor activity and body temperature are monitored in male Wistar rats treated with a test compound (i.e., benzisoxazole analog) initially at a concentration of 10 mg/kg. Higher and lower doses are assayed for select compounds (e.g., as high as 45 mg/kg, and as low as necessary to establish a no-effect dose). Treatments are administered at CT-18, the peak of the activity dominated period (6 hours after lights-off), and produced soporific (sleep-inducing) effects characterized by increased non-REM sleep time, increased sleep continuity, but without evidence of REM sleep inhibition or rebound insomnia.
Sleep-wakefulness, locomotor activity and body temperature were monitored in vivo with various compounds of the invention. Adult, male Wistar rats (250 g at time of surgery, Charles River Laboratories, Wilmington Mass.) were anesthetized (2% isoflourane in medical grade oxygen) and surgically prepared with a cranial implant to permit chronic electro-encephalogram (EEG) and electromyogram (EMG) recording. Body temperature and locomotor activity were monitored via a miniature transmitter (Mini-Mitter, Bend, Oreg.) surgically placed in the abdomen. The cranial implant consisted of stainless steel screws (two frontal [+3.2 AP from bregma, ±2.0 ML] and two occipital [−6.9 AP, ±5.5 ML]) for EEG recording. Two Teflon®-coated stainless steel wires were positioned under the nuchal trapezoid muscles for EMG recording. All leads were soldered to a miniature connector prior to surgery, and gas sterilized in ethylene oxide. The implant assembly was affixed to the skull with dental acrylic. A minimum of three weeks was allowed for surgical recovery.
Each rat was permanently housed in its own individual recording cage located within separate, ventilated compartments of custom-designed stainless steel cabinets. Each cage was enhanced with a filter-top riser and low-torque swivel-commutator. Food and water were available ad libitum. A 24-hr light-dark cycle (12 hours light, 12 hours dark) was maintained throughout the study. Animals were undisturbed for at least 48 hours before and after treatments.
Sleep and wakefulness were determined using “SCORE-2004™” (Hypnion, Worcester, Mass.)—an internet-based sleep-wake and physiological monitoring system. The system monitored amplified EEG (bandpass 1-30 Hz), integrated EMG (bandpass 10-100 Hz), body temperature and non-specific locomotor activity (LMA) via telemetry, and drinking activity, continuously and simultaneously. Arousal states were classified on-line as non-REM (NREM) sleep, REM sleep, wake, or theta-dominated wake every 10 seconds. Total drinking and locomotor activity counts, and body temperature were quantitiated and recorded each minute, using EEG feature extraction and pattern-matching algorithms. […] The classification algorithm used individually-taught EEG-arousal-state templates, plus EMG criteria to differentiate REM sleep from theta-dominated wakefulness, plus behavior-dependent contextual rules (e.g., if the animal was drinking, it is awake). Drinking and locomotor activity intensity (LMA) were recorded every 10 seconds, while body temperature was recorded each minute. Locomotor activity was detected by a telemetry receiver (Mini-Mitter) beneath the cage. Telemetry measures (LMA and body temperature) were not part of the scoring algorithm; thus, sleep-scoring and telemetry data were independent measures.
Compounds were administered at CT-18, the peak of the activity-dominated period, sufficient time was allowed to view the time course of the treatment effect before lights-on (6 hours post-treatment). Compounds were suspended in sterile 0.25% or 0.5% methylcellulose (1-2 ml/kg). Treatments were administered orally as a bolus.
A parallel group study design was employed. […]

CC(C)(CN1CCC(c2noc3ccccc23)CC1)C(=O)O [Compound 1]
LONGEST UNINTERRUPTED SLEEP BOUT (0.3 mg/kg oral): 3.3 ± 1.8 | MAXIMUM NREM SLEEP CUMULATION (0.3 mg/kg oral): 13 ± 4 | LONGEST UNINTERRUPTED SLEEP BOUT (1 mg/kg oral): 17.2 ± 4.8 | MAXIMUM NREM SLEEP CUMULATION (1 mg/kg oral): 23 ± 6 | LONGEST UNINTERRUPTED SLEEP BOUT (3 mg/kg oral): 16.1 ± 2.3 | MAXIMUM NREM SLEEP CUMULATION (3 mg/kg oral): 21 ± 6 | LONGEST UNINTERRUPTED SLEEP BOUT (10 mg/kg oral): 15.2 ± 3.3 | MAXIMUM NREM SLEEP CUMULATION (10 mg/kg oral): 28 ± 5
